Experiments:
[1] = Inhibition of AMPK at 3 uM relative to control; values are per cent of control
[2] = Inhibition of SAPK2a at 3 uM relative to control; values are per cent of control
[3] = molecular target: Serine/threonine-protein kinase D1 (Homo sapiens) (UniProt Q15139); assay: Inhibition of PKD1 at 3 uM relative to control; values are per cent of control
[4] = molecular target: Serine/threonine-protein kinase Sgk1 (Homo sapiens) (UniProt O00141); assay: Inhibition of SGK at 3 uM relative to control; values are per cent of control
ROCK1 (Homo sapiens) = assay: Inhibition of ROCK1
[5] = molecular target: Serine/threonine-protein kinase Chk1 (Homo sapiens) (UniProt O14757); assay: Inhibition of CHK1 at 3 uM relative to control; values are per cent of control
[6] = molecular target: Serine/threonine-protein kinase Nek6 (Homo sapiens) (UniProt Q9HC98); assay: Inhibition of NEK6 at 3 uM relative to control; values are per cent of control
[7] = molecular target: RAC-beta serine/threonine-protein kinase (Homo sapiens) (UniProt P31751); assay: Inhibition of PKBbeta at 3 uM relative to control; values are per cent of control
[8] = molecular target: Ribosomal protein S6 kinase alpha-1 (Homo sapiens) (UniProt Q15418); assay: Inhibition of MAPKAPK1A at 3 uM relative to control; values are per cent of control
[9] = molecular target: Calcium/calmodulin-dependent protein kinase type 1 (Homo sapiens) (UniProt Q14012); conditions: 3 to 6 uM
Description: Inhibition of CAMK1 at 3 to 6 uM relative to control

[10] = molecular target: MAP kinase-interacting serine/threonine-protein kinase 2 (Homo sapiens) (UniProt Q9HBH9); conditions: 3 to 6 uM
Description: Inhibition of MNK2 at 3 to 6 uM relative to control

[11] = molecular target: Tyrosine-protein kinase Lyn (Homo sapiens, UniProt P07948); assay: Inhibition of LYN
Cytochrome P450 2C19 = Cytochrome P450 2C19 (Homo sapiens, UniProt P33261); assay: Inhibition of human CYP2C19 by fluorescence assay; type: ADME
[12] = molecular target: Myosin light chain kinase, smooth muscle (Homo sapiens) (UniProt Q15746); conditions: 3 to 6 uM
Description: Inhibition of SMMLCK at 3 to 6 uM relative to control

Caco-2 = assay: Permeability from apical to basolateral side in human Caco-2 cells; type: ADME, cell-based; conditions: caco-2, BLD = below limit of detection
[13] = molecular target: Epidermal growth factor receptor (Homo sapiens) (UniProt P00533); conditions: 3 to 6 uM
Description: Inhibition of EGFR at 3 to 6 uM relative to control

[14] = Membrane permeability by PAMPA assay; type: ADME; conditions: read-out: permeability
[15] = molecular target: Serine/threonine-protein kinase Nek6 (Homo sapiens) (UniProt Q9HC98); conditions: 3 to 6 uM
Description: Inhibition of NEK6 at 3 to 6 uM relative to control

[16] = molecular target: RAC-beta serine/threonine-protein kinase (Homo sapiens) (UniProt P31751); conditions: 3 to 6 uM
Description: Inhibition of PKBbeta at 3 to 6 uM relative to control

[17] = molecular target: Lymphokine-activated killer T-cell-originated protein kinase (Homo sapiens) (UniProt Q96KB5); conditions: 3 to 6 uM
Description: Inhibition of PBK at 3 to 6 uM relative to control

Chain of Serine/threonine-protein kinase Nek6 (Homo sapiens) (Q9HC98 whole entry): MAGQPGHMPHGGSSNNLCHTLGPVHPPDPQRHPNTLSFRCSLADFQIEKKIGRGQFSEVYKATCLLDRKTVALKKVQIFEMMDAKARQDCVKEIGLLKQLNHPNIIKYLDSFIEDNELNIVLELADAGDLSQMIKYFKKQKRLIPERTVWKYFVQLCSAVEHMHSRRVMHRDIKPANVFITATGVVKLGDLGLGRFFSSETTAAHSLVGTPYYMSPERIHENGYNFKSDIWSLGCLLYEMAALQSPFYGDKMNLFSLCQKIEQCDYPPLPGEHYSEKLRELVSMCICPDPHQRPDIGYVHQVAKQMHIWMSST
Chain of RAC-beta serine/threonine-protein kinase (Homo sapiens) (P31751 whole entry): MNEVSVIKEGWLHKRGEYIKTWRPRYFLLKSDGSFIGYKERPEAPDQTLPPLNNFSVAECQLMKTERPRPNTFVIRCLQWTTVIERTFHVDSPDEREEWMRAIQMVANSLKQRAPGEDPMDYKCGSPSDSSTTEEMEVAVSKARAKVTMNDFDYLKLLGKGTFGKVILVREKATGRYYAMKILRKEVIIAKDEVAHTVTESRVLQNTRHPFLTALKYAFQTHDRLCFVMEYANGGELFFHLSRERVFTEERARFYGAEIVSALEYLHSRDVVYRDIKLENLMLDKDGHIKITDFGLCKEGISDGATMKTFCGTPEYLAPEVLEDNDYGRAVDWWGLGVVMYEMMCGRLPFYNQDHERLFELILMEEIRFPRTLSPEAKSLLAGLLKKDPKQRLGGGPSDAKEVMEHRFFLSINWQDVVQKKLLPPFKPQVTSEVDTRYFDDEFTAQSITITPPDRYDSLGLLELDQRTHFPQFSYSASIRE
Chain of Epidermal growth factor receptor (Homo sapiens) (P00533 whole entry): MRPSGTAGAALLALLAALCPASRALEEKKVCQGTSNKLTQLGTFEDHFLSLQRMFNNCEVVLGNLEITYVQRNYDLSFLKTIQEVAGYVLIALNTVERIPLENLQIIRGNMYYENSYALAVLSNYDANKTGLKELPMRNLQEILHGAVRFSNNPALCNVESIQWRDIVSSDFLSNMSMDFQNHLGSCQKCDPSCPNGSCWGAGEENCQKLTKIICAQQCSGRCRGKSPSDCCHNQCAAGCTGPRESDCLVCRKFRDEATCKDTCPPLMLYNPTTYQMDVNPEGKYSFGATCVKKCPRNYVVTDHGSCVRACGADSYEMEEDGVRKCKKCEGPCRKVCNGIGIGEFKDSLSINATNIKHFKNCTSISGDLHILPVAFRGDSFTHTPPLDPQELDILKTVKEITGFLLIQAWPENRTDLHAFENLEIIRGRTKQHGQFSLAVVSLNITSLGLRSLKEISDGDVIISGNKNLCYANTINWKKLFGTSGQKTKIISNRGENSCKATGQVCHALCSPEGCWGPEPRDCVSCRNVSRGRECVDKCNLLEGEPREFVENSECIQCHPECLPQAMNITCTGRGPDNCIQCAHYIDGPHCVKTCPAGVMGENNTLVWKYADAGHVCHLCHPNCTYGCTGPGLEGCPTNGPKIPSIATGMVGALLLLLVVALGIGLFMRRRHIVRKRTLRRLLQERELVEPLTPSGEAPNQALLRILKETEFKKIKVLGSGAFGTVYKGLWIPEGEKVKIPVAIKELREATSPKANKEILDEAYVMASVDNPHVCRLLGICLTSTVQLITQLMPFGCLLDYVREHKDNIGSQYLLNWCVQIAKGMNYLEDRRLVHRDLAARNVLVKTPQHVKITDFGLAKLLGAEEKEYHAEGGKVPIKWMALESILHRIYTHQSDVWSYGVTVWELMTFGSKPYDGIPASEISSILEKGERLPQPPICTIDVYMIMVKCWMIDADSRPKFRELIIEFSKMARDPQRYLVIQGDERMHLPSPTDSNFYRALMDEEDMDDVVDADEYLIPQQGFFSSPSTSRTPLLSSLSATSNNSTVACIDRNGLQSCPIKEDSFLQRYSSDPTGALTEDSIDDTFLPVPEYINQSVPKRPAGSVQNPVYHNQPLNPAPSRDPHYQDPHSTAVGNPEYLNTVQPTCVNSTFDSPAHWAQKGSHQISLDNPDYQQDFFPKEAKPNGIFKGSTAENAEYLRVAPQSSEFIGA
Chain of Tyrosine-protein kinase Lyn (P07948 whole entry): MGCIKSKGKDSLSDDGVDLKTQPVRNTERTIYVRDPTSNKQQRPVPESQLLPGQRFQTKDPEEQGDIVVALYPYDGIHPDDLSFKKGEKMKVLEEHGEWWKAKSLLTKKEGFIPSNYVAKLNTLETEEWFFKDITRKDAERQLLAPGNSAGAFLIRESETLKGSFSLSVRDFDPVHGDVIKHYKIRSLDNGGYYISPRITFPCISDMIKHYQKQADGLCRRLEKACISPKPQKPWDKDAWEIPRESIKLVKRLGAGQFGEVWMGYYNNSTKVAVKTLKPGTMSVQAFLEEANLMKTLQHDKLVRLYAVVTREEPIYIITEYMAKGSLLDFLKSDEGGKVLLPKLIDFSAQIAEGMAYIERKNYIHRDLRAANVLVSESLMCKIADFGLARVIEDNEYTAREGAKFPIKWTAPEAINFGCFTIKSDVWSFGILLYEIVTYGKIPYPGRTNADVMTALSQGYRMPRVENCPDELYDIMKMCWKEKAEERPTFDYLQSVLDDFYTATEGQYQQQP
Chain of Myosin light chain kinase, smooth muscle (Homo sapiens) (Q15746 whole entry): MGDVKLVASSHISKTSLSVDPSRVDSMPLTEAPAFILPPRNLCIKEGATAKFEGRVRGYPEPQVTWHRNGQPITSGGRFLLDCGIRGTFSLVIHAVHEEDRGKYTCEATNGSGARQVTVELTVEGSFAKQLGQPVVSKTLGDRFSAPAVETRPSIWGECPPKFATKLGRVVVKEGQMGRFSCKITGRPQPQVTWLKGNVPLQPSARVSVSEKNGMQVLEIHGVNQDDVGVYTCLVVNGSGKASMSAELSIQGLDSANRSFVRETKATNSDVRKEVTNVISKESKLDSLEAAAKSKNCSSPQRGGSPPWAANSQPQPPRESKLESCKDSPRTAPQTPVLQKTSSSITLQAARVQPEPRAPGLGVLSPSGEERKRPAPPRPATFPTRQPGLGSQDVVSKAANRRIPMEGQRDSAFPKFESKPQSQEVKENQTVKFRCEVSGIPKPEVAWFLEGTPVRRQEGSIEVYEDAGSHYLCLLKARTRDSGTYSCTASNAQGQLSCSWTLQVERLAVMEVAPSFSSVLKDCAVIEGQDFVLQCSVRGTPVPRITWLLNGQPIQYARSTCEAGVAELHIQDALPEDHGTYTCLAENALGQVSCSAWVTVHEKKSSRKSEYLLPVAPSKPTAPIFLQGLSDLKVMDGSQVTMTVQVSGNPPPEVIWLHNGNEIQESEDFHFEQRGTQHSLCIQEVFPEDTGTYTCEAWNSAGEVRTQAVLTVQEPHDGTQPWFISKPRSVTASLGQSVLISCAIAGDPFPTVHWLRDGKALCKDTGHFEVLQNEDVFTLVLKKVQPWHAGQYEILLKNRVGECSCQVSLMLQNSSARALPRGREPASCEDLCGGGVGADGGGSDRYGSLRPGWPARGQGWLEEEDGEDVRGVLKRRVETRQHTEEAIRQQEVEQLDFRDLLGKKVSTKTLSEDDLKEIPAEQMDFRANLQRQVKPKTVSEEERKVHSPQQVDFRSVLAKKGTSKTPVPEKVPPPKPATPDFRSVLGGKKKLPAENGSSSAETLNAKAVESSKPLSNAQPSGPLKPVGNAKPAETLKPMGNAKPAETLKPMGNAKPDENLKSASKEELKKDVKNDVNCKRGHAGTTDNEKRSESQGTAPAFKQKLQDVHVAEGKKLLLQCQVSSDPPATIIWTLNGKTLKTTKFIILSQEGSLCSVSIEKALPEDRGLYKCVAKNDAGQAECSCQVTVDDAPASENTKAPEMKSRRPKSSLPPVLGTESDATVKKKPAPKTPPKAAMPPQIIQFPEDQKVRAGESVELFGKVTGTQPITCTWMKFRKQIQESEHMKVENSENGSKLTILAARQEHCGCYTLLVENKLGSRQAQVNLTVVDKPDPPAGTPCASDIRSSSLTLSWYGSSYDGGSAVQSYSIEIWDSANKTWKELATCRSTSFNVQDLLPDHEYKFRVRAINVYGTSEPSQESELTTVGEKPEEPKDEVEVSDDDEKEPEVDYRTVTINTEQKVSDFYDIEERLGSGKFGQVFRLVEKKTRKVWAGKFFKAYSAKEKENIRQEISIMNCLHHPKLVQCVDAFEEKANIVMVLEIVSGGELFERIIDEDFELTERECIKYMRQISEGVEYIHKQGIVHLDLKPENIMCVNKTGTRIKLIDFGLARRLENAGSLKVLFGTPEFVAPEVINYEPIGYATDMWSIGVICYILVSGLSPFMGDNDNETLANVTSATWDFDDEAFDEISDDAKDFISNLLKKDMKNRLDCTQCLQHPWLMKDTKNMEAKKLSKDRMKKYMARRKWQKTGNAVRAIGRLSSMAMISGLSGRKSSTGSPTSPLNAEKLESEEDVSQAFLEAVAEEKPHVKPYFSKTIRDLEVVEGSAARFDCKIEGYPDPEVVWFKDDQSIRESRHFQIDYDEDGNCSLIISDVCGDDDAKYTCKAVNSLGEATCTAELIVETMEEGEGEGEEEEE
Chain of Calcium/calmodulin-dependent protein kinase type 1 (Homo sapiens) (Q14012 whole entry, looked up): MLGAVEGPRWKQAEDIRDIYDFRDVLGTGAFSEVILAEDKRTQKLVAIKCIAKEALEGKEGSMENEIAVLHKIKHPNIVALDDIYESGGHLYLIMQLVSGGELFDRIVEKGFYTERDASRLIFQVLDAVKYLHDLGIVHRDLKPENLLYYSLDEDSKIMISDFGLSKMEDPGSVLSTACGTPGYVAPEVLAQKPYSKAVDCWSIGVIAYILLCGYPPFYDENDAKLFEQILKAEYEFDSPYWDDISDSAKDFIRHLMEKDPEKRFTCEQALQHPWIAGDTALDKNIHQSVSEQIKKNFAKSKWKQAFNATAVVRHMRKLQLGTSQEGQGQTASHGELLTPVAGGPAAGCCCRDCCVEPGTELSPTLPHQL

Row | Compound | residual activity [1] | residual activity [2] | residual activity [3] | residual activity [4] | IC50 (ROCK1 (Homo sapiens)) | residual activity [5] | residual activity [6] | residual activity [7] | residual activity [8] | residual activity [9] | residual activity [10] | IC50 [11] | IC50 (Cytochrome P450 2C19) | residual activity [12] | permeability (Caco-2) | residual activity [13] | Papp [14] | residual activity [15] | residual activity [16] | residual activity [17]
1 | NC(=O)c1ccc(NC(=O)NCc2cccc(C(=O)Nc3ccc4c(c3)CNCC4)c2)cc1 | > 50% | > 50% | > 50% | > 50% | 0.006 µM | > 50% | > 50% | > 50% | > 50% |  |  |  |  |  |  |  |  |  |  | 
2 | COc1ccc(C(=O)NCc2cccc(C(=O)Nc3ccc4c(c3)CNCC4)c2)cc1OC |  |  |  |  |  |  |  |  |  | > 50% | > 50% | > 10 µM | > 30 µM | > 50% | BLD | > 50% | 36 nm/s | > 50% | > 50% | > 50%
